# Key:
# ATF4 = experiment: Inhibition of ATF4, downstream factor of ISR, in HT-1080 cells, Western blot (FIG. 1); assay type: cell-based, human; conditions: amino acid deficiency, compound 50 nM, 24 hours
# Method: (§1) <Experimental Example 5> Evaluation of Inhibitory Efficacy of ISR-Related Kinase GCN2 Under Amino Acid Deficiency Condition Using Western Blot
# (§2) HT-1080 cells, a human fibrosarcoma cell line, were cultured in RPMI-1640 medium supplemented with 10% FBS, penicillin (penicillin; 100 IU/ml), and streptomycin (streptomycin; 100 μg/ml). Cells (1×10^6 cells/ml) were seeded onto 100 mm plates (polypropylene tissue culture plate) and incubated for 24 hours in a 37° C., 5% CO2 incubator before being used for experiments.
# (§3) The following method was used to achieve amino acid deficiency conditions in cells. After 24 hours of cell culture, the cells were cultured in amino acids and L-glutamine-free RPMI-1640 medium supplemented with 10% FBS, penicillin (100 IU/ml), and streptomycin (100 μg/ml). After 24 hours of cell culture in RPMI-1640 without amino acids and L-glutamine, the compound prepared at a concentration of 50 nM was dispensed onto each plate and cultured for 24 hours in a 37° C., 5% CO2 incubator.
# (§4) In order to measure the signal transduction inhibitory efficacy of GCN among the ISR-related kinases according to the present invention, the following experiment was performed using SDS-PAGE. The fibrosarcoma cell line HT-1080 cells cultured on plates as described above were washed with PBS after removing the culture medium. After removing PBS, the cells were lysed by adding a radio-immunoprecipitation assay buffer (RIPA buffer) containing 50 mM Tris (pH 7.4), 150 mM NaCl, 1% NP-40, 0.5% sodium deoxycholate, 2 mM sodium fluoride, 2 mM EDTA, 0.1% SDS, and a protease/phosphatase inhibitor cocktail to the plate. After centrifugation at 4° C., 13,000×g for 15 minutes, the protein in the upper layer was collected, and the protein concentration was measured at 562 nm using BCA (bicinchoninc acid) reagent, and the amount of protein in all samples was prepared at 20-50 μg.
# (§5) After making the total volume the same using the sample buffer and RIPA buffer, it was heated at 97° C. for 5 minutes. Then, electrophoresis was performed on 8% or 12% SDS-PAGE at 80 V for 30 minutes and at 160 V for 1 hour and 30 minutes. After electrophoresis, the SDS-PAGE gel was transferred to an NC membrane (nitrocellulose membrane) at 90 V for 2 hours. The NC membrane was placed in TBST (tris buffer saline tween-20; 20 mM tris, 137 mM sodium chloride, 0.1% tween-20, pH 8.0) containing 5% non-fat skim milk, placed on a shaker, and reacted at room temperature for 1 hour.
# (§6) Each primary antibody was diluted in TBST containing 5% non-fat skim milk, poured onto the NC membrane, and reacted at 4° C. for 24 hours. The membrane was washed three times for 10 minutes each with TBST. The secondary antibodies (anti-rabbit IgG and anti-mouse IgG labeled with horseradish peroxidase (HRP)) were diluted in TBST containing 5% non-fat skim milk and reacted with the membrane at room temperature for 1 hour. Upon completion of the reaction, the membrane was washed three times with TBST for 10 minutes each. Protein expression bands were detected by a chemiluminescence image analyzer (Image Quant LAS 500) after the ECL solution was reacted with the NC membrane.
# FIG. 1 is a set of photographs confirming the mechanism proteins that react upon ISR activation, wherein the numbers correspond to example numbers of the present invention. […] They are also known to have an effect on increasing the expression of CHOP (GADD153), the most downstream factor of the mechanism. […] Thus, in addition to the activation of ISR by amino acid deficiency, a significant effect can be expected on the mechanism of inhibition of the activity of PERK, an ISR-related kinase, due to endoplasmic reticulum stress response.
# [1] = molecular target: recombinant human GCN2 protein (Homo sapiens, UniProt Q9P2K8); experiment: General control nonderepressible 2 (GCN2) inhibitory capacity, 33P-ATP filter assay; assay type: biochemical; conditions: recombinant human GCN2, 70 uM [gamma-33P-ATP], 40 minutes, room temperature
# Sequence of recombinant human GCN2 protein (Q9P2K8 whole entry): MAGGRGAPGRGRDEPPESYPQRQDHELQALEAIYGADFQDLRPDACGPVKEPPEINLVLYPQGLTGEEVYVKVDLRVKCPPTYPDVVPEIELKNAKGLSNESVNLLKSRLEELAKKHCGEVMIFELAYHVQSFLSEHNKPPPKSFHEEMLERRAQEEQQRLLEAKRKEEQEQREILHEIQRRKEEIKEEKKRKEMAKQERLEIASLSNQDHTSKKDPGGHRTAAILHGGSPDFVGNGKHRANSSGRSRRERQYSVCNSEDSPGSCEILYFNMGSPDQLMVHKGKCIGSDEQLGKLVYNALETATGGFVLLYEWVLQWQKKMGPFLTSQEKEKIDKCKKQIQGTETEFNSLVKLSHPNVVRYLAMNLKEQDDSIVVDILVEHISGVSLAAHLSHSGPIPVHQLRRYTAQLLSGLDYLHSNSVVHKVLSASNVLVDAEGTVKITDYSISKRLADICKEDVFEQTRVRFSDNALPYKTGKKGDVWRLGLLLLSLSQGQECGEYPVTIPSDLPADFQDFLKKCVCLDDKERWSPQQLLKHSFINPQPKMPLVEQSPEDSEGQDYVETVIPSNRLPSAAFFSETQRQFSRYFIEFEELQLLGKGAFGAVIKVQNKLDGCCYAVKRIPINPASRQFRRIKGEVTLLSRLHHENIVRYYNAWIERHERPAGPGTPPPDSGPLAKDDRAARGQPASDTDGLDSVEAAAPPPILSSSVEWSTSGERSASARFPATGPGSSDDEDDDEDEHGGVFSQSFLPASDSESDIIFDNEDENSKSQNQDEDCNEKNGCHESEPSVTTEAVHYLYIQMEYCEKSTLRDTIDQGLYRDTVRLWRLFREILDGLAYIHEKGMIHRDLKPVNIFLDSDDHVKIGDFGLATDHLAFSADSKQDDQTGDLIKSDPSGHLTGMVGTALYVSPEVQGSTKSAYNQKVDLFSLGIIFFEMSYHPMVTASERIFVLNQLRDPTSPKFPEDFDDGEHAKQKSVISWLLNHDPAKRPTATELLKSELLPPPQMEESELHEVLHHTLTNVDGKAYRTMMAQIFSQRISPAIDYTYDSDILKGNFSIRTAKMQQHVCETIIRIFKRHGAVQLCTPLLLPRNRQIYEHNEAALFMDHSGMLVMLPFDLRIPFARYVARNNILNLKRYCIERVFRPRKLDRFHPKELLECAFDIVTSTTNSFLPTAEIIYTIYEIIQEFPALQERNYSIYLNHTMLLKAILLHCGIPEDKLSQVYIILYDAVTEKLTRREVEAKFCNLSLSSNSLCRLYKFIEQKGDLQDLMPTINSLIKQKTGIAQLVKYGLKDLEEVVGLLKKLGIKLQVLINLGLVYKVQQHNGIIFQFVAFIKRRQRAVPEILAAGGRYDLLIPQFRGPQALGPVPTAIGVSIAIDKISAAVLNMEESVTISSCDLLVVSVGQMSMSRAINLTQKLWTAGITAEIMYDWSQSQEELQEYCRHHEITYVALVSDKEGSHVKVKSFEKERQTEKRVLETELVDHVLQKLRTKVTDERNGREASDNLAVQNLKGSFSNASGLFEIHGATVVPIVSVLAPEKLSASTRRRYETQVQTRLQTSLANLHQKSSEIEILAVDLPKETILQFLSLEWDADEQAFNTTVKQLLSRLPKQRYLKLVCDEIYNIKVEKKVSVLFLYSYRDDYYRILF
# phosphorylated GCN2 = molecular target: T1, phosphorylated GCN2 (Homo sapiens, UniProt Q9P2K8); experiment: Inhibition of phosphorylated GCN2 under amino acid deficiency in HT-1080 cells, Western blot; assay type: cell-based; conditions: compound 50 nM, 24 hours; for Phospho-GCN2 inhibition: symbols ◯ / X not defined
# T1 construct: endogenous in cells; host or cells: HT-1080
# T1 sequence (Q9P2K8 whole entry): as above
# Method: as §1, §2, §3, §4, §5, §6
# GCN2, a key kinase of the integrated stress response (ISR), is phosphorylated in response to amino acid deficiency.
# [2] = molecular target: recombinant human HRI protein (Homo sapiens, UniProt Q9BQI3); experiment: eIF2-alpha kinase heme-regulated inhibitor (HRI) inhibitory capacity, 33P-ATP filter assay; assay type: biochemical; conditions: 45 uM [gamma-33P-ATP], 40 minutes, room temperature
# Sequence of recombinant human HRI protein (Q9BQI3 whole entry): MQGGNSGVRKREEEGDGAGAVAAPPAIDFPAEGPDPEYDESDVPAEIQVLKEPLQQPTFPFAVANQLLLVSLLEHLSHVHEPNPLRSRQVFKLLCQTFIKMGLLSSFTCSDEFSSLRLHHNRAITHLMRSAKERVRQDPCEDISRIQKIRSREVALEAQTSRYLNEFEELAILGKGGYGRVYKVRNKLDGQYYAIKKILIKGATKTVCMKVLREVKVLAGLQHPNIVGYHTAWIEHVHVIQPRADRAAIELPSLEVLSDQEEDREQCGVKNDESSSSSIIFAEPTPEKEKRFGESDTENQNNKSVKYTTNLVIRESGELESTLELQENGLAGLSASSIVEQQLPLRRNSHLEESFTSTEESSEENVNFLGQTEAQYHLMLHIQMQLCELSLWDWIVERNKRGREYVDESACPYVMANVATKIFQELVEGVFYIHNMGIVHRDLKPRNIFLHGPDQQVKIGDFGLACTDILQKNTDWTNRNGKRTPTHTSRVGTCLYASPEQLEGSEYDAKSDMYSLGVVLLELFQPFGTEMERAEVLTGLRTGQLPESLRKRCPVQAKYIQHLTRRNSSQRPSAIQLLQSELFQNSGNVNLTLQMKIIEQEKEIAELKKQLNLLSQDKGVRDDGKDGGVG
# Method: <Experimental Example 3> Evaluation of eIF2-Alpha Kinase Heme-Regulated Inhibitor (HRI) Inhibitory Capacity
# A recombinant human HRI protein was mixed with the compound in a reaction solution (50 mM Tris/HCl pH 7.5, 0.04 mM EDTA, 300 uM RSRSRSRSRSRSRSR, 10 mM Magnesium acetate, 45 uM [gamma-33P-ATP]) and reacted at room temperature for 40 minutes. Then, the reaction was terminated by adding phosphoric acid (0.5%) to the reaction mixture, and […] of the reaction solution was dropped onto a P30 filter. The filter was washed four times in a 0.425% phosphoric acid solution for 4 minutes, then […] washed once more in methanol, dried, and the HRI activity was measured by scintillation counting. […] The compound was diluted by 1/3 from the highest concentration of 1 uM and treated with a total of 9 concentrations to evaluate the degree of inhibition.
# [3] = molecular target: recombinant human PKR protein (Homo sapiens, UniProt P19525); experiment: Protein kinase R (PKR) inhibitory capacity, 33P-ATP filter assay; assay type: biochemical; conditions: 15 uM [gamma-33P-ATP], 40 minutes, room temperature
# Sequence of recombinant human PKR protein (P19525 whole entry): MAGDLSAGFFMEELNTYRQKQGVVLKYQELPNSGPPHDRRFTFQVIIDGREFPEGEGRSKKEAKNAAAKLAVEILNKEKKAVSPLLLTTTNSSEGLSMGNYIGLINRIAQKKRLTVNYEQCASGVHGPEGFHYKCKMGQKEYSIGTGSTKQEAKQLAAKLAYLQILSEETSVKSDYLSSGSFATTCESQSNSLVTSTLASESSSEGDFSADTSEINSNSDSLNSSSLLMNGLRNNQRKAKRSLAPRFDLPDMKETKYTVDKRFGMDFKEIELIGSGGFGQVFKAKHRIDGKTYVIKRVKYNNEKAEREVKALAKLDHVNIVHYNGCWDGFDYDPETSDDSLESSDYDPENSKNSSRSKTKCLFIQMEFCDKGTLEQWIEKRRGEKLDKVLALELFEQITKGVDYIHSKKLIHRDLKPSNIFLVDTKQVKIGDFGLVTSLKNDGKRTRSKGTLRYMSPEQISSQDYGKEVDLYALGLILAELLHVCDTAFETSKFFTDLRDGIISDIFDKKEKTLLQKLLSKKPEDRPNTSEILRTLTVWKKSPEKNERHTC
# Method: <Experimental Example 4> Evaluation of Protein Kinase R (PKR) Inhibitory Capacity
# (§7) A recombinant human PKR protein was mixed with the compound in a reaction solution (8 mM MOPS pH 7.0, 0.2 mM EDTA, 20 uM RSRSRSRSRSRSRSR, 10 mM Magnesium acetate, 15 uM [gamma-33P-ATP]) and reacted at room temperature for 40 minutes. Then, the reaction was terminated by adding phosphoric acid (0.5%) to the reaction mixture, and 10 ul of the reaction solution was dropped onto a P30 filter. The filter was washed four times in a 0.425% phosphoric acid solution for 4 minutes, then washed once more in methanol, dried, and the PKR activity was measured by scintillation counting. […] The compound was diluted by 1/3 from the highest concentration of 1 uM and treated with a total of 9 concentrations to evaluate the degree of inhibition.
# [4] = molecular target: T2, recombinant human PERK protein (Homo sapiens, UniProt Q9NZJ5); experiment: PKR-like endoplasmic reticulum kinase (PERK) inhibitory capacity, 33P-ATP filter assay; assay type: biochemical; conditions: 15 uM [gamma-33P-ATP], 40 minutes, room temperature
# T2 sequence (Q9NZJ5 30-1116): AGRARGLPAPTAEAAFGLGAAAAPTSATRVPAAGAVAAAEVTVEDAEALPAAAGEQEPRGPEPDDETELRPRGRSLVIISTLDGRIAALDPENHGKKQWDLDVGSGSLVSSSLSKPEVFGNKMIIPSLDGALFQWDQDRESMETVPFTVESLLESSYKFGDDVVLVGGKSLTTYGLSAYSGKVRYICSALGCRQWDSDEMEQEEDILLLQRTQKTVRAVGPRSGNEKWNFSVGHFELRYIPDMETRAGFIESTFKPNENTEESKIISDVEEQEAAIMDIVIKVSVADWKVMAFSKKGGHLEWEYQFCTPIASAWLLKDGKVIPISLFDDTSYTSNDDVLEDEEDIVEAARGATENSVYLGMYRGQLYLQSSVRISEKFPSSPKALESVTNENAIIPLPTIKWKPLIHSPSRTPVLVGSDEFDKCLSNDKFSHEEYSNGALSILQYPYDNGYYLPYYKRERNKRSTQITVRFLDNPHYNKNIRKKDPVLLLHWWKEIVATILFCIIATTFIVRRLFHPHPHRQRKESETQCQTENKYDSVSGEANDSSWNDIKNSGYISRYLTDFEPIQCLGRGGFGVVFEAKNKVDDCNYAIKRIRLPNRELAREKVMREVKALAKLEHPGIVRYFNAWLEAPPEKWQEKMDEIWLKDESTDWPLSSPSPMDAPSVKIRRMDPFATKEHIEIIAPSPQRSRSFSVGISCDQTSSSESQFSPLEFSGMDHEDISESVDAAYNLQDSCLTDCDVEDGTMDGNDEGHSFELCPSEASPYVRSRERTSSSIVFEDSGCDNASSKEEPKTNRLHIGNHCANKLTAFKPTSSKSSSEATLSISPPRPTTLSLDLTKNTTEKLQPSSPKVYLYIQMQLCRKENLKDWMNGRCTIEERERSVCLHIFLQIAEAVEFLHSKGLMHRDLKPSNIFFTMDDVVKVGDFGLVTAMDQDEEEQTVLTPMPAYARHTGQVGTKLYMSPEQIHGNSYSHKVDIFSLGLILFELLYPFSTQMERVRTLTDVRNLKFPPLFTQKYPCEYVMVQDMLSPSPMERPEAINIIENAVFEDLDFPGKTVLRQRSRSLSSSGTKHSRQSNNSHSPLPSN
# Method: <Experimental Example 1> Evaluation of PKR-Like Endoplasmic Reticulum Kinase (PERK) Inhibitory Capacity
# as §7, with “PERK” for “PKR”, “300” for “20”
IC50 [1] [nM],inhibitory effect on the phosphorylated GCN2 (phosphorylated GCN2),Phospho-GCN2 inhibition (phosphorylated GCN2),IC50 [2] [nM],IC50 [3] [nM],IC50 [4] [nM],SMILES,inhibitory effect on ATF4 (FIG. 1) (ATF4)
100 to 300,excellent inhibitory effects,◯,,,,"Cn1c(=O)n(-c2c(F)ccc(NS(=O)(=O)c3cccc4ccccc34)c2F)c(=O)c2cnc(N)nc21 [Example 43, N-(3-(7-amino-1-methyl-2,4-dioxo-1,4-dihydropyrimido[4,5-d]pyrimidin-3(2H)-yl)-2,4-difluorophenyl)naphthalene-1-sulfonamide]",excellent inhibitory effects
100 to 300,excellent inhibitory effects,◯,,,,"COc1ccc(Br)cc1S(=O)(=O)Nc1ccc(F)c(-n2c(=O)c3cnc(N)nc3n(C)c2=O)c1F [Example 51, N-(3-(7-amino-1-methyl-2,4-dioxo-1,2-dihydropyrimido[4,5-d]pyrimidin-3(4H)-yl)-2,4-difluorophenyl)-5-bromo-2-methoxybenzenesulfonamide]",excellent inhibitory effects
< 100,,,100 to 300,> 1000,< 100,"COc1ncc(C#N)cc1S(=O)(=O)Nc1ccc(F)c(-n2ccc3nc(N)ncc3c2=O)c1F [Example 28, N-(3-(2-amino-5-oxopirido[4,3-d]pyrimidin-6(5H)-yl)-2,4-difluorophenyl)-5-cyano-2-methoxypyridine-3-sulfonamide]",
